molecular target: T1, human GPR139 (Homo sapiens, UniProt Q6DWJ6); assay: Inhibition rate of the amount of IP1 in GPR139-expressed CHO cells (inverse agonist assay, Test Example 2); format: cell-based; conditions: CHO, relative value, inhibition rate of Example Compound 2 in Test Example 1 defined as 100%
T1 construct: expressed in transfected cells; host or cells: CHO-TREx (Life Technologies) cells, expression induced with doxycycline
T1 sequence (Q6DWJ6 1-353): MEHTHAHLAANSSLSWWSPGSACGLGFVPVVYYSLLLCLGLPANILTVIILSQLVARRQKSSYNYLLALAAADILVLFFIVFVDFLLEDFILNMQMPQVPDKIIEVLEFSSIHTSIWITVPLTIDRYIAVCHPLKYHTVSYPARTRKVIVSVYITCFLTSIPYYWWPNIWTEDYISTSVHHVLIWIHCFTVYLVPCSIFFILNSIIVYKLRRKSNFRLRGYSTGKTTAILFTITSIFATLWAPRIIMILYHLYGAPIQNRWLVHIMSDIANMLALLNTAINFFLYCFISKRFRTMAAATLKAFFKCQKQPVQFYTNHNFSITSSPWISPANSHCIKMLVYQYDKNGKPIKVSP
Method: The measurement of IP1 was made using an IP-ONE HTFR assay kit (cis-bio) and CHO-TREx (Life Technologies) cells stably transfected with GPR139. The CHO-TREx cells expressed human GPR139 with a tetracycline-inducing element. The cells were cultured in a medium containing F12K and 10% tetracycline-free FBS, and the expression of human GPR139 was induced over the course of 17 hours under conditions of 37° C. and 5% CO2 in the presence of 2 μg/mL of doxycycline (Clontech, 631311) in the growth medium on the day before assay. On the day of the test, after the cells were washed with 10 mL of PBS, the cells were detached with TrypLE Express (Life Technologies) and centrifuged at 1,000 rpm to form pellets, and a cell suspension was then prepared using a stimulation buffer (cis-bio, included in the IP-ONE HTRF assay kit).
The compound was diluted with the stimulation buffer, and 4 μL was added to a 384-well white assay plate (Greiner). The cell suspension was added so that there were 2000 cells per well, and the assay plate was left to stand for 40 minutes at 37° C. Equal amounts of IP1-d2 and Ab-Crp solutions (both available from cis-bio, included in the IP-ONE HTRF assay kit) prepared with a lysis buffer (cis-bio, included in the IP-ONE HTRF assay kit) were mixed, and 4 μL was added to the assay plate and left to stand for one hour at room temperature. After the fluorescence strengths of two wavelengths were measured by the HTRF settings of Envision (PerkinElmer), the value of Ratio={(Signal 665 nm)/(Signal 615 nm)}×10000 was calculated.
Measurement of the Inhibition Rate of the Amount of IP1 in GPR139-Expressed CHO Cells (Inverse Agonist Assay)
The activities of the compounds of Examples 1 and 3 to 167 were expressed as relative values in Table 2 by measuring the inhibition rate of the amount of IP1 with the same method as in Test Example 1 and defining the inhibition rate of the amount of IP1 of Example Compound 2 in Test Example 1 as […].

Row | inhibition at 30 µM [%] | SMILES
1 | 101 | CCn1cc(Cn2c(C)nn(-c3cc(C(F)(F)F)cc(N4CCC(F)(F)CC4)n3)c2=O)cn1 [Example 141]
2 | 99 | CCn1cc(Cn2c(C)c(C)n(-c3cc(OC[C@@H]4CCCO4)cc(C(F)(F)F)c3)c2=O)cn1 [Example 100]
3 | 100 | CCn1cc(Cn2c(C)nn(-c3cc(N(C)C4CCOCC4)cc(C(F)(F)F)c3F)c2=O)cn1 [Example 95, 4-[(1-ethyl-1H-pyrazol-4-yl)methyl]-2-{2-fluoro-5-[methyl(oxan-4-yl)amino]-3-(trifluoromethyl)phenyl}-5-methyl-2,4-dihydro-3H-1,2,4-triazol-3-one]
4 | 101 | CCn1cc(Cn2c(C)c(C)n(-c3cc(C(F)(F)F)c(F)c(N4CCO[C@H](C)C4)n3)c2=O)cn1 [Example 150, 1-[(1-ethyl-1H-pyrazol-4-yl)methyl]-3-{5-fluoro-6-[(2R)-2-methylmorpholin-4-yl]-4-(trifluoromethyl)pyridin-2-yl}-4,5-dimethyl-1,3-dihydro-2H-imidazol-2-one]
5 | 102 | CCn1cc(Cn2cc(C)n(-c3cc(OCC4CC(F)(F)C4)cc(C(F)(F)F)c3)c2=O)cn1 [Example 7, 3-{3-[(3,3-difluorocyclobutyl)methoxy]-5-(trifluoromethyl)phenyl}-1-[(1-ethyl-1H-pyrazol-4-yl)methyl]-4-methyl-1,3-dihydro-2H-imidazol-2-one]
6 | 98 | CCc1cc(N2CCO[C@H](C)C2)cc(-n2cc(C)n(Cc3cnn(CC)c3)c2=O)c1F [Example 81, 1-{3-ethyl-2-fluoro-5-[(2R)-2-methylmorpholin-4-yl]phenyl}-3-[(1-ethyl-1H-pyrazol-4-yl)methyl]-4-methyl-1,3-dihydro-2H-imidazol-2-one]
7 | 98 | CCn1cc(Cn2cnn(-c3cc(OCC4CC(F)(F)C4)cc(C(F)(F)F)c3F)c2=O)cn1 [Example 151, 2-{5-[(3,3-difluorocyclobutyl)methoxy]-2-fluoro-3-(trifluoromethyl)phenyl}-4-[(1-ethyl-1H-pyrazol-4-yl)methyl]-2,4-dihydro-3H-1,2,4-triazol-3-one]
8 | 101 | CCn1cc(Cn2cc(C)n(-c3cc(C(F)(F)F)cc(NCC4(F)CCC4)n3)c2=O)cn1 [Example 110, 1-[(1-Ethyl-1-pyrazole-4-yl)methyl]-3-[6={[(1-fluorocyclobutyl)methyl]amino}-4-(trifluoromethyl)pyridine-2-yl]-4-methyl-1,3-dihydro-2H-imidazole-2-one]
9 | 102 | CCn1cc(Cn2cc(C)n(-c3cc(N4CCO[C@H](C)C4)cc(C(F)(F)F)c3F)c2=O)cn1 [Example 4, 1-[(1-ethyl-1H-pyrazol-4-yl)methyl]-3-{2-fluoro-5-[(2R)-2-methylmorpholin-4-yl]-3-(trifluoromethyl)phenyl}-4-methyl-1,3-dihydro-2H-imidazol-2-one]
10 | 99 | CCn1cc(Cn2c(C(F)(F)F)cn(-c3nc(N4CCO[C@H](C)C4)cc(C(F)(F)F)c3F)c2=O)cn1 [Example 127, 3-[(1-Ethyl-1H-pyrazole-4-yl)methyl]-1-{3 fluoro-6-[(2R)-2-methylmorpholine-4-yl]-4-(trifluoromethyl)pyridine-2-yl}-4-(trifluoromethyl)-1,3-dihydro-2H-imidazole-2-one]
11 | 99 | Cc1nn(-c2cc(N3CCO[C@@H](C)C3)cc(C(F)(F)F)c2F)c(=O)n1Cc1cnn(C(C)C)c1 [Example 90, 2-{2-fluoro-5-[(2S)-2-methylmorpholin-4-yl]-3-(trifluoromethyl)phenyl}-5-methyl-4-{[1-(propan-2-yl)-1H-pyrazol-4-yl]methyl}-2,4-dihydro-3H-1,2,4-triazol-3-one]
12 | 99 | CCc1cc(N2CCO[C@H](C)C2)cc(-n2ccn(Cc3cnn(CC)c3)c2=O)c1F [Example 80, 1-{3-ethyl-2-fluoro-5-[(2R)-2-methylmorpholin-4-yl]phenyl}-3-[(1-ethyl-1H-pyrazol-4-yl)methyl]-1,3-dihydro-2H-imidazol-2-one]
13 | 102 | Cc1cn(Cc2cnn(C(C)C)c2)c(=O)n1-c1nc(N2CCOC(C)(C)C2)cc(C(F)(F)F)n1 [Example 135, 3-[4-(2,2-dimethylmorpholin-4-yl)-6-(trifluoromethyl)pyrimidin-2-yl]-4-methyl-1-{[1-(propan-2-yl)-1H-pyrazol-4-yl]methyl}-1,3-dihydro-2H-imidazol-2-one]
14 | 99 | CCn1cc(Cn2ccn(-c3cc(N4CCCC(F)(F)C4)cc(C(F)(F)F)c3F)c2=O)cn1 [Example 37, 1-[5-(3,3-difluoropiperidin-1-yl)-2-fluoro-3-(trifluoromethyl)phenyl]-3-[(1-ethyl-1H-pyrazol-4-yl)methyl]-1,3-dihydro-2H-imidazol-2-one]
15 | 98 | CCn1cc(Cn2c(C)cn(-c3cc(N(C)C4CCOCC4)cc(C(F)(F)F)c3Cl)c2=O)cn1 [Example 58, 1-{2-chloro-5-[methyl(oxan-4-yl)amino]-3-(trifluoromethyl)phenyl}-3-[(1-ethyl-1H-pyrazol-4-yl)methyl]-4-methyl-1,3-dihydro-2H-imidazol-2-one]
16 | 102 | CCn1cc(Cn2ccn(-c3nc(N4CCOC(F)(F)C4)cc(C(F)(F)F)c3F)c2=O)cn1 [Example 123, 1-[6-(2,2-difluoromorpholin-4-yl)-3-fluoro-4-(trifluoromethyl)pyridin-2-yl]-3-[(1-ethyl-1H-pyrazol-4-yl)methyl]-1,3-dihydro-2H-imidazol-2-one]
17 | 102 | CCn1cc(Cn2c(C)nn(-c3cc(N4CCC(F)(F)CC4)cc(C(F)(F)F)c3F)c2=O)cn1 [Example 97, 2-[5-(4,4-difluoropiperidin-1-yl)-2-fluoro-3-(trifluoromethyl)phenyl]-4-[(1-ethyl-1H-pyrazol-4-yl)methyl]-5-methyl-2,4-dihydro-3H-1,2,4-triazol-3-one]
18 | 101 | CCn1cc(Cn2cc(C)n(-c3cc(C(F)(F)F)cc(N4CCOC(C)(C)C4)n3)c2=O)cn1 [Example 125, 3-[6-(2,2-dimethylmorpholin-4-yl)-4-(trifluoromethyl)pyridin-2-yl]-1-[(1-ethyl-1H-pyrazol-4-yl)methyl]-4-methyl-1,3-dihydro-2H-imidazol-2-one]
19 | 97 | CCn1cc(Cn2c(C)cn(-c3cc(N4CCC(F)(F)CC4)cc(C4CC4)c3F)c2=O)cn1 [Example 165, 1-[3-cyclopropyl-5-(4,4-difluoropiperidin-1-yl)-2-fluorophenyl]-3-[(1-ethyl-1H-pyrazol-4-yl)methyl]-4-methyl-1,3-dihydro-2H-imidazol-2-one]
20 | 100 | CCn1cc(Cn2ccn(-c3cc(N4CCO[C@H](C)C4)cc(OC(F)(F)F)c3F)c2=O)cn1 [Example 153, 1-[(1-ethyl-1H-pyrazol-4-yl)methyl]-3-{2-fluoro-5-[(2R)-2-methylmorpholin-4-yl]-3-(trifluoromethoxy)phenyl}-1,3-dihydro-2H-imidazol-2-one]
21 | 101 | CCn1cc(Cn2ccn(-c3cc(N4CCC(F)(F)CC4)cc(C(F)(F)F)c3F)c2=O)cn1 [Example 36, 1-[5-(4,4-difluoropiperidin-1-yl)-2-fluoro-3-(trifluoromethyl)phenyl]-3-[(1-ethyl-1H-pyrazol-4-yl)methyl]-1,3-dihydro-2H-imidazol-2-one]
22 | 95 | CCn1cc(Cn2ccn(-c3cc(OCC4CC(F)(F)C4)cc(C(F)F)c3Cl)c2=O)cn1 [Example 69, 1-{2-chloro-5-[(3,3-difluorocyclobutyl)methoxy]-3-(difluoromethyl)phenyl}-3-[(1-ethyl-1H-pyrazol-4-yl)methyl]-1,3-dihydro-2H-imidazol-2-one]
23 | 101 | CCn1cc(Cn2c(C)cn(-c3cc(N4CCO[C@H](C)C4)cc(C(F)(F)F)c3Cl)c2=O)cn1 [Example 57, 1-{2-chloro-5-[(2R)-2-methylmorpholin-4-yl]-3-(trifluoromethyl)phenyl}-3-[(1-ethyl-1H-pyrazol-4-yl)methyl]-4-methyl-1,3-dihydro-2H-imidazol-2-one]

same assay, conditions: relative value, inhibition rate of Example Compound 2 in Test Example 1 defined as 100%, 30 µM

Row | Inhibition Rate at 30 μM [%] | SMILES
24 | 102 | CCn1cc(Cn2cc(C)n(-c3cc(OCC4CC4(F)F)cc(C(F)(F)F)c3)c2=O)cn1 (stereo not drawn) [Example 50, 3-{3-[(2,2-difluorocyclopropyl)methoxy]-5-(trifluoromethyl)phenyl}-1-[(1-ethyl-1H-pyrazol-4-yl)methyl]-4-methyl-1,3-dihydro-2H-imidazol-2-one]

Reference: US12630534B2 (TAKEDA PHARMACEUTICAL COMPANY LIMITED, priority 2020, dated 2026)
